Among the data in ChEMBL document CHEMBL4145566, “Isoindolinones, Phthalides, and a Naphthoquinone from the Fruiting Body of Daldinia concentrica” (J Nat Prod, 2018) are IC50 values, retold here.

The assay has as its system HUVEC. The assay can be described thus: Antiangiogenic activity in HUVEC assessed as inhibition of cell proliferation after 18 hrs by WST-8 reagent based assay. The assay is classed as functional. Particulars: Homo sapiens. For orientation: Tetrazolium assays rely on reduction of a dye to a coloured formazan, in cell work by metabolically active cells.

Structures are written as SMILES.

The term IC50 denotes the concentration at which inhibition is half-maximal. As for `C=C1[C@@H](C)[C@H]2[C@H](Cc3ccccc3)NC(=O)[C@]23OC(=O)/C=C/[C@@H](O)CCC[C@@H](C)C/C=C/[C@H]3[C@@H]1O`, the concentration for half-maximal inhibition (IC50) was determined as 0.2 µM.
`COc1cccc2c1C(=O)C(=O)C=C2c1ccc(O)c2c(OC)cccc12`: the IC50 amounted to 7.5 µM.
